Assay [1] deals with T1, Aβ1-40 aggregation (Homo sapiens, UniProt P05067).
T1 construct: purchased EZBiolab
Put plainly: Inhibition of Aβ40 aggregation, ThT fluorescence. The format is biochemical. The settings on record: inhibitor 10 µM, Aβ40 30 µM, PBS pH 7.4, 2% HFIP, 2 h 25 °C; mean ± SEM. On the procedure: ThT fluorescence in the presence of Aβ was measured for each compound according a previously described procedure. The samples were co-incubated and mixed in 96-well black, non-binding microplates (Greiner Bio-One GmbH, Frickenhausen, Germany), incubating Aβ40 (EZBiolab, Carmel, IN, USA) at a final concentration of 30 µM with each inhibitors at a final concentration of 10 µM in PBS (pH 7.4) containing 2% 1,1,1,3,3,3-hexafluoro-2-propanol (HFIP). After 2 h at 25 °C, a 25 µM ThT solution was added and fluorescence was determined using the multi-plate reader Tecan Infinite M1000 Pro (Tecan, Cernusco S.N., Italy). The results are reported as mean of three independent experiments ± SEM [13].

A short description of assay [2]: DPPH radical scavenging assay. To be noted: DPPH 100 µM in methanol, 30 min. The protocol: A previously reported method (Blois) with some modifications (Mishra, Ojha, & Chaudhury, 2012) was used to carry out the DPPH assay in 96-well microtiter plates. Each tested compound was dissolved in methanol, after which a freshly prepared solution of DPPH in methanol (100 µM final concentration) was added. Following vigorous stirring, each mixture was left in the dark for 30 min at room temperature, after which absorbance values for each well were read at 520 nm using a spectrophotometric plate reader (VICTOR^3 V multilabel plate reader, PerkinElmer). Antioxidant activity was determined as RSA% (radical scavenging activity). The value was calculated using following equation: RSA% = 100 × [(Ao − Ai)/Ao], where Ao and Ai represent DPPH absorbance in absence or in presence of antioxidant, respectively. Antiradical curves for calculating the EC50 values were obtained by testing each compound at several concentrations. Values of all parameters are expressed as mean ± SEM of at least three independent measurements in triplicate.

The target of assay [3] is T2, FAAH Human recombinant (Homo sapiens, UniProt O00519).
T2 construct: purchased Cayman Chemical
T2 sequence (O00519 1-579): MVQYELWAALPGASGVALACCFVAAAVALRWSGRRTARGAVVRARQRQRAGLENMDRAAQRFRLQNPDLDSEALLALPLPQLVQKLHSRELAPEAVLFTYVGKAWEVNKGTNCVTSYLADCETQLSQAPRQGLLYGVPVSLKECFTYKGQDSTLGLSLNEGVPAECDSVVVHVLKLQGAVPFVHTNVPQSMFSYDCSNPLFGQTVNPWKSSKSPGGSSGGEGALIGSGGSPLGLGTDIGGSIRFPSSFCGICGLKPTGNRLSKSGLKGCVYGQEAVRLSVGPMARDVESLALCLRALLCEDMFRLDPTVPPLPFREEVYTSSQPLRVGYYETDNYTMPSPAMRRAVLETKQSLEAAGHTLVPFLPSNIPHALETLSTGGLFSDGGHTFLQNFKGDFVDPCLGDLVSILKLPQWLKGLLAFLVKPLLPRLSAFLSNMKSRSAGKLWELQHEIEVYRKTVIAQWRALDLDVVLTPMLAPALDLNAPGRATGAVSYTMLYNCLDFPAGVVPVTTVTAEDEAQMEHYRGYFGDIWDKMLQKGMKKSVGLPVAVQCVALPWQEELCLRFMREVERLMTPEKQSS
Put plainly: FAAH inhibition, fluorometric assay. The format is biochemical. To be noted: mean ± SEM; read-out: hFAAH (IC50). On the procedure:
The fatty acid amide hydrolase inhibition was measured for the final compounds using 96-well black flat-bottom microtiter NBS plates (COSTAR flat black). The total volume was 150 µL: the single hybrid was pre-incubated at different concentrations with the enzyme (FAAH Human recombinant, Cayman Chemical, Ann Arbor, MI, USA) in the specific fluorometric assay buffer (tris-HCl 125 mM, Na2EDTA · 2H2O 1 mM, pH = 9.0) for ten minutes at RT, using an orbital shaker. A 50 μL solution of the substrate (7-amino-4-methyl-2H-1-benzopyran-2-one-5Z,8Z,11Z,14Z-eicosatetraen-amide, at a final concentration of 5 µM) was then added. The plates were then incubated for 1 h at 37 °C in a Tecan Infinite M1000 Pro (Tecan, Cernusco S.N., Italy), reading fluorescence values from each well every 30s (λex = 340 nm, λem = 450 nm). The inhibitor activity was expressed as relative fluorescence units (RFU), using the values obtained from control wells lacking the inhibitor and blank wells lacking both inhibitor and enzyme to calculate percent inhibition values for each well. IC50 values are expressed as mean ± SEM of at least two independent measurements performed in triplicate.

Assay [4] concerns SH-SY5Y cells. Description: DCFH-DA cell-based antioxidant assay (H2O2-induced oxidation), SH-SY5Y. The settings on record: Homo sapiens, SHSY-5Y, 1 h compound, 100 μM H2O2, read-out: DCFDH-DA IC50 ± SEM SHSY-5Y. On the procedure:
HepG2 cells were cultured in Eagle’s Minimum Essential Medium (MEM, Euroclone S.p.A., Pero, MI, Italy), supplemented with 10% Fetal Bovine Serum (FBS, Euroclone S.p.A., Pero, MI, Italy), 1% L-glutamine (Euroclone S.p.A., Pero, MI, Italy), 100 U/mL penicillin/streptomycin (Euroclone S.p.A., Pero, MI, Italy), 1% Non-Essential Amino Acids (NEAA, Euroclone S.p.A., Pero, MI, Italy). SH-SY5Y cells were grown in a 1:1 mixture of Dulbecco’s modified Eagle’s medium (DMEM)—high glucose (Euroclone S.p.A., Pero, MI, Italy) and Ham’s F12 Medium (Euroclone S.p.A., Pero, MI, Italy) supplemented with 10% FBS, 1% L-glutamine and 100 U/mL penicillin/streptomycin. For cell assays, cells were trypsinized using Trypsin-EDTA 1X in PBS (Euroclone S.p.A., Pero, MI, Italy).
According to a slightly modified procedure already reported in the literature, the generation of ROS was determined using an oxidation-sensitive fluorescent probe, 2′,7′-dichlorodihydrofluorescein diacetate (DCFH-DA, D6665; Sigma-Aldrich, St. Louis, MO, USA). Briefly, viable cells were seeded in a black 96-well cell culture plate (Costar, Sigma-Aldrich, St. Louis, MO, USA) and after 24 h were incubated with different concentrations (0.1–100 µM) of each compound for 1 h at 37 °C in 5% CO2. […] After washing using PBS, 100 μM H2O2 in medium without serum was added to each well and the cells were incubated for an additional 30 min. The formation of fluorescent dichlorofluorescein (DCF) due to oxidation of DCFH in the presence of ROS, was read at 530 nm using a microplate reader Tecan Infinite M1000 Pro (Tecan, Cernusco S.N., Italy) and DMSO medium was used for control cells. The results are expressed as mean ± SEM of at least three independent measurements in triplicate.

T1 sequence (P05067 672-711 limits assumed): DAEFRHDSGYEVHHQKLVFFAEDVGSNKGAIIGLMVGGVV

Take `COc1cc2c(cc1OC)C(=O)C(CC1CCN(Cc3ccccc3)CC1)C2` (centres unmarked) [Donepezil]: the “Aβ1-40 Aggregation (I% at 10 µM)” value in assay [1] is recorded as 14% ± 7.
`O=C(O)c1cc(O)c(O)c(O)c1` [Gallic acid, reference compound]: the entries for the “EC50 (μmol/μmol of DPPH ± SEM)” value in assay [2] and in assay [2] (listed as gallic acid) were 0.059 ± 0.003 μmol/μmol of DPPH and 0.059 μmol/μmol of DPPH, respectively.
Take `O=C(Oc1ccc([N+](=O)[O-])cc1)N1CCN(Cc2cccc(Oc3ccccc3)c2)CC1` [JZL195, reference compound]: the IC50 in assay [3] turned out to be 19 ± 3 nM.
Take `O=c1c(O)c(-c2ccc(O)c(O)c2)oc2cc(O)cc(O)c12` [Quercetin, reference compound]: the IC50 in assay [4] amounted to 5610 ± 400 nM.

The values are drawn from article PMC9495854, “Novel Phenothiazine/Donepezil-like Hybrids Endowed with Antioxidant Activity for a Multi-Target Approach to the Therapy of Alzheimer’s Disease” (Antioxidants, 2022).
